Here are results for 4 molecules from EP2549976B1, “SKIN-FRIENDLY ACTIVE INGREDIENT COMBINATION TO COMBAT ACNE” (Beiersdorf AG, priority 2010, dated 2011).

One test has as its system P.acnes. Put plainly: Suspension test: decline of P. acnes in the formulations after 1 h, 6 h and 24 h (colony count). The note with it: for antimikrobielle Wirksamkeit gegen P.acnes: result in words, suspension test, formulations as composed. In kind it is cell-based, Propionibacterium acnes. The procedure:
Die antimikrobielle Wirksamkeit der erfindungsgemäßen Kombinationen gegen P. acnes wurde zum Vergleich mit verschiedenen Formulierungen untersucht. Dazu wurde in einem Suspensionstest der Rückgang der P.acnes nach 1 h, 6h und 24h beobachtet. Dazu wurden wenige Einzelkolonien einer P.acnes - Kultur in 10mL anaerobem Medium im Impedanzgerät mit dem Programm PR37NT herangezogen. Nach der Wachstumsphase von ca. 18 Stunden wird zur Kontrolle der Keimzahl die OD gemessen, die etwa zwischen 0,3 - 0,5 liegen sollte. Für den Versuch wurden 100µL der gewachsene Kolonie und 100µL autoklaviertes Wasser zu 800mg der zu prüfenden Formulierung gegeben. Die Tests wurden manuell durchgeführt. Zwischen den Abnahmen werden die Proben unter anaeroben Bedingungen (Topf) gelagert. Die Proben wurden jeweils zum Zeitpunkt 1h, 6h und 24h genommen und auf den entsprechenden Agarplatten ausplattiert. Die Platten werden unter anaeroben Bedingungen (Topf) bei 37°C bebrütet. Nach 5 Tagen wurde die Keimzahl bestimmt. Die Abbildungen 1 und 2 zeigen die ermittelten Ergebnisse. Darin umfassen die Formulierung wie folgt • A: 0,5 Gew.% Licochalcone A • B: 0,5 Gew.% Licochalcone A und 0,3 Gew.% 1,2 Decandiol • C: 0,3 Gew.% 1,2 Decandiol • D: 0,5 Gew.% Licochalcone A, 0,3 Gew.% 1,2 Decandiol und 2 Gew.% Carnitin • E: 0,5 Gew.% Licochalcone A, 0,2 Gew.% 1,2 Decandiol und 2 Gew.% Carnitin • F: 0,5 Gew.% Licochalcone A, 0,1 Gew.% 1,2 Decandiol und 2 Gew.% Carnitin • G: 0,3 Gew.%-1,2 Decandiol und 2 Gew.% Carnitin • H: 0,2 Gew.% 1,2 Decandiol und 2 Gew.% Carnitin • I: 0,1 Gew.% 1,2 Decandiol und 2 Gew.% Carnitin

Test [1] concerns P. acnes. The note with it: 0,2 % 1,2-Decandiol alone or combined with 1 % Milchsäure, from EP 1598064 A1; cited from earlier work.
The subject of test [2] is P. acnes. Particulars: gegenüber P. acnes; cited from earlier work.

Structures are written as SMILES.

Consider `CCCCCCCCC(O)CO` (stereo not shown) [1,2-Decandiol], for which the “Zellzahl reduziert um Faktor” value in the test on P.acnes (0,3% Decandiol allein) worked out at 4158. In the test with P.acnes, the “antimikrobielle Wirksamkeit gegen P.acnes” value is “nur eine schwache antimikrobielle Wirksamkeit”. Further, in the test on P. acnes [1], the “antibakterielle Wirkung im Suspensionstest” value is listed as “so gut wie keine antibakterielle Wirkung”. With `CC[C@H]1OC(=O)[C@H](C)[C@@H](O[C@H]2C[C@@](C)(OC)[C@@H](O)[C@H](C)O2)[C@H](C)[C@@H](O[C@@H]2O[C@H](C)C[C@H](N(C)C)[C@H]2O)[C@](C)(O)C[C@@H](C)C(=O)[C@H](C)[C@@H](O)[C@]1(C)O` [Erythromycin], the MHK-Werte with P. acnes [2] was below 1 pmm. Regarding `C=CC(C)(C)c1cc(/C=C/C(=O)c2ccc(O)cc2)c(OC)cc1O` [Licochalcone A], in the test with P.acnes (0,5% Licochalcone A allein, nach 24h), the Reduktionsfaktor is reported as 41. Moreover, in the test on P.acnes, the “antimikrobielle Wirksamkeit gegen P.acnes” value is given as “keine antimikrobielle Wirksamkeit”. Turning to `CN(C)[C@@H]1C(O)=C(C(N)=O)C(=O)[C@@]2(O)C(O)=C3C(=O)c4c(O)cccc4[C@@](C)(O)[C@H]3C[C@@H]12` [Tetracyclin], the MHK-Werte in the test on P. acnes [2] is below 1 pmm.
